Experimental data: the Deep4Chem optical property database

Test: solvent given as SMILES

Work on `CC(C)c1cccc(C(C)C)c1N1C(=O)c2ccc3cc4c(cc5ccc6c7c(ccc4c57)C(=O)N(c4c(C(C)C)cccc4C(C)C)C6=O)c4ccc(c2c34)C1=O` yielded an absorption maximum (in ClCCl) of 648 nm.
With `CC1(C)c2ccccc2N(c2c(F)cc(-c3nnc(-c4ccccc4)o3)cc2F)c2ccccc21` the absorption maximum (in Cc1ccccc1) was 376 nm and the absorption maximum (in O=P(c1ccccc1)(c1ccccc1)c1ccccc1Oc1ccccc1P(=O)(c1ccccc1)c1ccccc1) was 370 nm.
With `N#Cc1nn(-c2ccc(F)cc2)nc1N1CCCC1` the absorption maximum (in CC#N) was 340 nm.
`Nc1nc2ccc(F)cc2[n+]([O-])n1` gave an absorption maximum (in CC#N) of 415 nm and an absorption maximum (in O) of 422 nm.
Work on `Cn1nc(-c2ccccc2)c2nc3cc(Cl)ccc3nc21` yielded an absorption maximum (in C1CCCCC1) of 428 nm, an absorption maximum (in C1CCOC1) of 429 nm and an absorption maximum (in CC#N) of 427 nm.
Compound `CCN(CC)c1ccc2n1[B-](F)(F)[N+]1=CC(/C=C/C(=O)OC(C)(C)C)=CC1=C2c1c(C)cc(C)cc1C` has an absorption maximum (in ClCCl) of 478 nm.
`CC(C)(C)c1ccc(N(c2ccccc2)c2ccc3ccc4c(N(c5ccccc5)c5ccc(C(C)(C)C)cc5)ccc5ccc2c3c54)cc1` gave an absorption maximum (in ClCCl) of 428 nm.
`COc1ccc(N(c2ccc(OC)cc2)c2cc(N(c3ccc(OC)cc3)c3ccc(OC)cc3)c3ccc4cc(C(C)(C)C)cc5ccc2c3c54)cc1` gave an absorption maximum (in ClCCl) of 434 nm.
With `CC1(C)C(/C=C/C2=C(c3ccc(C(=O)O)cc3)C(=C/C=C3/N(CCCCS(=O)(=O)[O-])c4ccc(S(=O)(=O)[O-])cc4C3(C)C)/CCC2)=[N+](CCCCS(=O)(=O)[O-])c2ccc(S(=O)(=O)[O-])cc21` the absorption maximum (in CO) was 770 nm.
With `N#Cc1nc2c(nc1C#N)C1c3ccc(N(c4ccccc4)c4ccccc4)cc3C2c2ccc(N(c3ccccc3)c3ccccc3)cc21` the absorption maximum (in C1CCCCC1) was 408 nm, the absorption maximum (in CC#N) was 378 nm and the absorption maximum (in Cc1ccccc1) was 391 nm. The absorption maximum (in ClCCl) was 409 nm.
For `CC/C=C/C=C/C=C/C=C/CCCCCCCC(=O)O`, the absorption maximum (in C1COCCO1) was 317.3 nm, the absorption maximum (in CCCCCC) was 313.5 nm and the absorption maximum (in CCCCCCCCCC) was 315.3 nm. For the same compound, the absorption maximum (in CCCCO) was 315.2 nm, the absorption maximum (in CCO) was 313.8 nm and the absorption maximum (in CCOCC) was 313.5 nm. For the same compound, the absorption maximum (in CO) was 313 nm, the absorption maximum (in ClC(Cl)Cl) was 319.6 nm and the absorption maximum (in c1ccccc1) was 320 nm.
For `CC(C)(C)NC(=O)c1ccc(C(=O)NC(C)(C)C)c2c1c1c3ccc(Cl)cc3c3cc(Cl)ccc3c1c1c3ccc(Cl)cc3c3cc(Cl)ccc3c21`, the absorption maximum (in ClCCl) was 395 nm.
Work on `CCCCN1C(=O)C2=C(c3ccc(-c4ccc5c(c4)C(C)(C)c4ccccc4-5)cc3)NC(=O)C2=C1c1ccc(-c2ccc3c(c2)C(C)(C)c2ccccc2-3)cc1` yielded an absorption maximum (in ClCCl) of 497 nm.
In the case of `Cc1ccc(C2=C3C=CC(C#Cc4ccccc4)=[N+]3[B-](F)(F)n3c(C#Cc4ccccc4)ccc32)cc1`, the absorption maximum (in C1CCCCC1) is reported as 615 nm, the absorption maximum (in C1CCOC1) is reported as 610 nm and the absorption maximum (in C1COCCO1) is reported as 612 nm. It also gave an absorption maximum (in CCOC(C)=O) of 607 nm, an absorption maximum (in CO) of 605 nm and an absorption maximum (in Cc1ccccc1) of 614 nm. For the same compound, the absorption maximum (in ClC(Cl)Cl) was 614 nm and the absorption maximum (in ClCCl) was 614 nm.
In the case of `c1ccc(N2N=C(c3ccc4ccc5cccc6ccc3c4c56)CC2c2ccc3ccc4cccc5ccc2c3c45)cc1` (configuration not stated), the absorption maximum (in ClCCl) is reported as 422 nm.
With `O=c1c2ccccc2n2c3ccccc3c(=O)c3cc(-c4ccccc4)cc1c32` the absorption maximum (in CC#N) was 447 nm, the absorption maximum (in CCCCCC) was 437 nm and the absorption maximum (in CCCCOCCCC) was 440 nm. The absorption maximum (in CCOC(C)=O) was 443 nm, the absorption maximum (in CN(C)C=O) was 450 nm and the absorption maximum (in Cc1ccccc1) was 445.76 nm.
Work on `CC1=CC(C)=[N+]2C1=Cc1c3ccccc3c(-c3[nH]c(C)cc3C)n1[B-]2(F)F` yielded an absorption maximum (in ClCCl) of 609 nm.
Work on `Cc1c(COC(=O)Cc2ccccc2)n2c(OCC(=O)Cc3ccccc3)c(C)c(=O)n2c1=O` yielded an absorption maximum (in CCO) of 379 nm.
In the case of `CCN1C(=CC2=C([O-])C(=Cc3sc4ccccc4[n+]3CC)C2=O)Sc2ccccc21`, the absorption maximum (in CO) is reported as 649 nm, the absorption maximum (in ClC(Cl)Cl) is reported as 669 nm and the absorption maximum (in ClCCl) is reported as 670 nm.
`CCOC(=O)c1ccc(C2=CC3=c4cc(-c5ccc(C(=O)OCC)cc5)c5nc(C(F)(F)C(F)(F)C(F)(F)F)nc6c(-c7ccc(C(=O)OCC)cc7)cc(c4c65)C4=CC(c5ccc(C(=O)OCC)cc5)=C5N=C(C(F)(F)C(F)(F)C(F)(F)F)N=C2C5C43)cc1` (configuration not stated) gave an absorption maximum (in C1CCOC1) of 497 nm.
Work on `COc1ccc(-c2cc(B(c3c(C)cc(C)cc3C)c3c(C)cc(C)cc3C)c(-c3sc(-c4ccc(OC)cc4)cc3P(=O)(c3ccccc3)c3ccccc3)s2)cc1` yielded an absorption maximum (in CO) of 402 nm.
Compound `CC(=O)c1ccc2ccc3cccc4ccc1c2c34` has an absorption maximum (in C1CCOC1) of 384 nm, an absorption maximum (in CC#N) of 382 nm and an absorption maximum (in CCCCCC) of 384 nm. The absorption maximum (in CCO) was 383 nm, the absorption maximum (in CN(C)C=O) was 384 nm and the absorption maximum (in CO) was 385 nm. For the same compound, the absorption maximum (in Cc1ccccc1) was 387 nm and the absorption maximum (in ClCCl) was 385 nm.
With `COC(=O)C(C)NC(=O)CCNc1cccc2ccccc12` (configuration not stated) the absorption maximum (in CCO) was 331 nm.
`CN(C)c1ccc(-c2ccc(-c3ccc(N(C)C)cc3)c3nc(-c4ccccc4)c(-c4ccccc4)nc23)cc1` gave an absorption maximum (in ClC(Cl)Cl) of 443 nm.
Compound `C=CC(=O)Oc1ccc2cc(C=C)c(=O)oc2c1` has an absorption maximum (in CC#N) of 320 nm.
Compound `CN1CCN(CCCN2c3ccccc3Sc3ccc(C(F)(F)F)cc32)CC1` has an absorption maximum (in CC#N) of 310 nm, an absorption maximum (in CO) of 310 nm and an absorption maximum (in O) of 308 nm.
`CCN=C=S` gave an absorption maximum (in CCCCCC) of 250 nm.
`CCCCCCCCC1(CCCCCCCC)c2cc3c(cc2-c2sc(-c4ccc(/C=C5\SC(=S)N(CC)C5=O)c5nsnc45)cc21)C(CCCCCCCC)(CCCCCCCC)c1cc(-c2ccc(/C=C4\SC(=S)N(CC)C4=O)c4nsnc24)sc1-3` gave an absorption maximum (in ClC(Cl)Cl) of 652 nm.
With `CCn1c2ccccc2sc2c(C#N)c3[nH]c4ccccc4sc3c(C#N)c21` the absorption maximum (in ClC(Cl)Cl) was 495 nm.
`CN1c2cc3nc4cc(Br)c(Br)cc4nc3cc2N(C)C1(C)C` gave an absorption maximum (in CCO) of 473 nm.
In the case of `CCCCN1C(=O)C(=CC=C2N(CCCC)c3ccccc3N2CCCC)C(=O)N(CCCC)C1=S`, the absorption maximum (in CCCCCC) is reported as 470 nm, the absorption maximum (in CCO) is reported as 424 nm and the absorption maximum (in CN(C)C=O) is reported as 431 nm. It also gave an absorption maximum (in Cc1ccccc1) of 468 nm, an absorption maximum (in ClC(Cl)Cl) of 461 nm and an absorption maximum (in ClCCl) of 456 nm.
`Cc1ccc(C2=Nc3cccc4[n+]3[B-](c3ccccc3)(N2)NC(c2ccc(C)cc2)=N4)cc1` gave an absorption maximum (in ClCCl) of 435 nm.
Work on `COc1ccc2c3ccc(OC)cc3c3cc4c(C)cc(=O)oc4cc3c2c1` yielded an absorption maximum (in ClC(Cl)Cl) of 365 nm.
Compound `C[Si]1(C)C2=CC(=[N+]3CCC3)C=C(F)C2=Nc2c(F)cc(N3CCC3)cc21` has an absorption maximum (in CCO) of 709 nm.
In the case of `CN(C)c1ccc2ccc3oc(=O)c(-c4ccccc4)nc3c2c1`, the absorption maximum (in c1ccccc1) is reported as 474 nm.
For `Cn1c(=O)c(-c2ccccc2)nc2ccccc21`, the absorption maximum (in c1ccccc1) was 369 nm.
In the case of `CCCCC(CC)CN1C(=O)c2cc(Oc3ccc(C(C)(C)C)cc3)c3c4c(Cl)cc5c6c(cc(Cl)c(c7c(Oc8ccc(C(C)(C)C)cc8)cc(c2c37)C1=O)c64)C(=O)N(c1c(C(C)C)cccc1C(C)C)C5=O` (configuration not stated), the absorption maximum (in Cc1ccccc1) is reported as 560 nm.
`c1ccc(C2=C(c3ccccc3)c3cccc4c5c(cc(c34)O2)=NC2CCCCC2N=5)cc1` (configuration not stated) gave an absorption maximum (in ClCCl) of 431 nm.
For `C(#Cc1cc(C#Cc2cccs2)c(C#Cc2cccs2)c(C#Cc2cccs2)c1C#Cc1cccs1)c1cccs1`, the absorption maximum (in ClCCl) was 372 nm.
`C(=C\c1ccc(-c2cccc3ccccc23)s1)/c1cccs1` gave an absorption maximum (in ClCCl) of 370 nm.
Compound `CN(C)c1ccc(C2=[N+]3C(=Nc4c(-c5ccc(OCCCCS(=O)(=O)[O-])cc5)cc(-c5ccc(N(C)C)cc5)n4[B-]3(F)F)C(c3ccc(OCCCCS(=O)(=O)[O-])cc3)=C2)cc1` has an absorption maximum (in CS(C)=O) of 786 nm.
Compound `C(#Cc1nc2ccccc2s1)c1ccc(N(c2ccccc2)c2ccccc2)cc1` has an absorption maximum (in Cc1ccccc1) of 388 nm.
In the case of `O=C(O)c1ccc2cc3cc(C(=O)O)ccc3cc2c1`, the absorption maximum (in C1CCOC1) is reported as 409 nm and the absorption maximum (in CN(C)C=O) is reported as 409 nm.
